Measurements from patent US12037324B2, “Biarylmethyl heterocycles” (Université de Montréal, priority 2016, dated 2024).
Where a name gives a salt, the structure may show the parent alone.

Assays:
Type in all cases: cell-based
AGTR1 = biological target: T1, AGTR1 (Homo sapiens, UniProt P30556); test: DiscoveRx β-arrestin2 recruitment assay (enzyme complementation, Pathunter CHO-K1 AGTR1 β-arrestin cell line); conditions: DiscoveRx β-arrestin2 recruitment
T1 construct: host or cells: Pathunter CHO-K1 AGTR1 β-arrestin cell line (CHO-K1)
T1 sequence (P30556 1-359): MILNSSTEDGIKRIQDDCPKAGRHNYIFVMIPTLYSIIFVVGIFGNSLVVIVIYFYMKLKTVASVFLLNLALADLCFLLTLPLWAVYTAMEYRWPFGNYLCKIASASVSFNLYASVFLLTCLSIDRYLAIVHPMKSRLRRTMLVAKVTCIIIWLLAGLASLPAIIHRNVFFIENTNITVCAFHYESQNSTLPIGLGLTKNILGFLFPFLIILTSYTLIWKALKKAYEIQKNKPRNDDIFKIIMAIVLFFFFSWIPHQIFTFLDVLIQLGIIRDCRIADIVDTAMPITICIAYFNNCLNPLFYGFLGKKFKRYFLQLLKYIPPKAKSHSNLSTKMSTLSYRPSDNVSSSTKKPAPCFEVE
Summary of the method: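 Chemiluminescent enzyme-complementation read-out of β-arrestin2 recruitment to AGTR1 in engineered CHO-K1 cells after 90 min compound exposure at 37° C. Values are 4-parameter logistic EC50s in agonist mode, IC50s in antagonist mode, with efficacy relative to the maximal All response.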

hAT1R [1] = biological target: T2, hAT1R (Homo sapiens, UniProt P30556); test: BRET β-arrestin2 biosensor assay, higher receptor expression (hAT1R 5 ng/well), HEK293 cells; conditions: for EC50: High AT1R Expression
T2 sequence (P30556 1-359): T1 sequence (P30556 1-359)

hAT1R [2] = biological target: T2, hAT1R; test: BRET Gq biosensor assay, agonist response, HEK293 cells; conditions: section of the 42nd table directly before the BRET P63 section
Experimental: BRET β-arrestin2 and Gq Activation Assays
In another aspect of the invention, association of the ATIR with signaling proteins is assessed using bioluminescence resonance energy transfer assays (Stephane Angers, Ali Salahpour et al. 2002). This technology measures the association between bioluminescent and fluorescent protein tags.
Several of the plasmid constructs used in BRET experiments were previously described. Briefly, the coding sequence of β-arrestin2 was fused to Renilla luciferase II to generate β-arrestin2-Rluc (Quoyer, Janz et al. 2013). The membrane targeting motif from K-Ras, CAAX motif (GKKKKKKSKTKCVIM), was fused to Renilla GFP to create rGFP-CAAX plasmid (Namkung Y et al., Nat Commun (2016) 7, 12178). The Renilla luciferase II was inserted in the Gaq protein to generate Gaq-Rluc (Breton, Sauvageau et al. 2010). The Gγ1 protein was tagged with GFP10 to obtain GFP-Gyl, using the same strategy described previously for GFP-Gy2 (Gales, Rebois et al. 2005). The Gaq binding domain of the p63RhoGEF protein (amino acids 295-502) was fused to Renilla luciferase II to create P63-Rluc. Finally, the hAT1R plasmid construct encoding the receptor was generated by optimizing the coding sequence of human angiotensin II receptor (GeneOptimizer from ThermoFisher), and adding an artificial cleavable signal peptide from bovine prolactin ([…]) in N-terminus of the receptor to increase cell surface expression.
Gq Biosensor Assay HEK293 cells were cultured in DMEM supplemented with Penicillin-Streptomycin and 10% fetal bovine serum. Two days before the BRET experiment, HEK293 cells were transfected with hAT1R expression plasmid (200 ng/well) as well as Gaq-Rluc (100 ng/well), Gβ1 (375 ng/well) and GFP-Gγ1 (625 ng/well), using linear polyethylenimine 25 kDa (PEI) at a PEI:DNA ratio of 3:1. Transfected cells were directly seeded in 96-well plates, at a density of 35 000 cells per well, and maintained in culture for the next 48 h.
BRET experiments were carried out subsequently using the following procedures: cells were washed once with Tyrode's buffer (137 mM NaCl, 1 mM CaCl2, 0.9 mM KCl, […], 3.6 mM NaH2PO4, 5.5 mM glucose, 12 mM NaHCO3, and 25 mM HEPES, pH 7.4) and 90 μl of Tyrode's buffer was added to each well. Cells were equilibrated in their new buffer at room temperature for at least 30 minutes. Following the equilibration period, the coelenterazine substrate was first added to the cells, 10 μl per well of a 10×solution (prolume purple coelenterazine at a final concentration of 2 μM), immediately followed by compound addition using the HP D300 digital dispenser from Tecan (10 singlicate concentrations). Cells were incubated for 5 min at room temperature and BRET readings were then collected using a Synergy Neo Multi-Mode reader from BioTek with BRET2 filters 410/515, to record agonist response. […] A second reading was collected 5 min after this second addition, using the Synergy Neo Multi-Mode reader from BioTek with BRET2 filters 410/515, to record antagonist response. The BRET signal was determined by calculating the ratio of the light emitted by GFP (515 nm) over the light emitted by the Rluc (410 nm). To analyze agonist response, BRET signal values were converted into percentage of activation using the non-stimulated control as 0% and AngII maximal response as 100%. Sigmoidal concentration-response curves were generated with those normalized values using a 4-parameter logistic equation (IDBS ActivityBase software), to determine EC50 of the different compounds. In the case of antagonist response analysis, BRET signal values were converted into percentage of inhibition using the fixed dose of AngII (corresponding to the EC50) as 0% and non-stimulated control as 100%. Sigmoidal concentration-response curves were generated with those normalized values using a 4-parameter logistic equation (IDBS ActivityBase software), to determine IC50 of the different compounds.

CCCCc1nc(Cl)c(C(=O)O)n1Cc1ccc(-c2cc(-c3cnn(C4CC4)c3)ccc2-c2nn[nH]n2)cc1 [Example 386]
EC50 (AGTR1): 8.4 nM
DiscoveRx β-arrestin2 Ymax (%) (AGTR1; maximal response): 27.3%
BRET β-Arrestin2 High AT1R Expression Ymax (%) (hAT1R [1]): 66.7%
EC50 (hAT1R [1]): 45.2 nM
EC50 (hAT1R [2]): 59100 nM

CCCCc1ncc(C(=O)NCCOC(C)C)n1Cc1ccc(-c2cc(-c3ccccc3)ccc2-c2nn[nH]n2)cc1 [Example 367]
EC50 (AGTR1): 5.7 nM
DiscoveRx β-arrestin2 Ymax (%) (AGTR1; maximal response): 35.9%
BRET β-Arrestin2 High AT1R Expression Ymax (%) (hAT1R [1]): 63.3%
EC50 (hAT1R [1]): 17.6 nM
EC50 (hAT1R [2]): 59.1 nM

CCCCc1ncc(C(=O)N2CCCC2)n1Cc1ccc(-c2cc(-c3ccccc3)ccc2-c2nn[nH]n2)cc1 [Example 347]
EC50 (AGTR1): 57.2 nM
DiscoveRx β-arrestin2 Ymax (%) (AGTR1; maximal response): 26.8%
BRET β-Arrestin2 High AT1R Expression Ymax (%) (hAT1R [1]): 48.8%
EC50 (hAT1R [1]): 172 nM
EC50 (hAT1R [2]): 242 nM

CCCCc1ncc(-c2nnc(C)o2)n1Cc1ccc(-c2cc(-c3ccccc3)ccc2-c2nn[nH]n2)cc1 [Example 413, 2-(1-((6′-(2H-tetrazol-5-yl)-[1,1′:3′,1″-terphenyl]-4-yl)methyl)-2-butyl-1H-imidazol-5-yl)-5-methyl-1,3,4-oxadiazole]
EC50 (AGTR1): 21.8 nM
DiscoveRx β-arrestin2 Ymax (%) (AGTR1; maximal response): 16.3%
BRET β-Arrestin2 High AT1R Expression Ymax (%) (hAT1R [1]): 47.5%
EC50 (hAT1R [1]): 55.6 nM
EC50 (hAT1R [2]): 351 nM

CCCCc1ncc(C(=O)O)n1Cc1ccc(-c2cc(-c3ccccc3)ccc2-c2nn[nH]n2)cc1 [Example 345, 1-((6′-(2H-tetrazol-5-yl)-[1,1′:3′,1″-terphenyl]-4-yl)methyl)-2-butyl-1H-imidazole-5-carboxylic acid, TFA salt]
EC50 (AGTR1): 18.1 nM
DiscoveRx β-arrestin2 Ymax (%) (AGTR1; maximal response): 44.8%
BRET β-Arrestin2 High AT1R Expression Ymax (%) (hAT1R [1]): 92.0%
EC50 (hAT1R [1]): 17.9 nM
EC50 (hAT1R [2]): 12.5 nM

CCCCc1ncc(C(=O)N[C@@H](CC)C2CC2)n1Cc1ccc(-c2cc(-c3ccccc3)ccc2-c2nn[nH]n2)cc1 [Example 369]
EC50 (AGTR1): 174 nM
DiscoveRx β-arrestin2 Ymax (%) (AGTR1; maximal response): 30.9%
BRET β-Arrestin2 High AT1R Expression Ymax (%) (hAT1R [1]): 73.8%
EC50 (hAT1R [1]): 73.3 nM
EC50 (hAT1R [2]): 173 nM

CCCCc1ncc(C(=O)Nc2ccncc2C)n1Cc1ccc(-c2cc(-c3ccccc3)ccc2-c2nn[nH]n2)cc1 [Example 375]
EC50 (AGTR1): 89.7 nM
DiscoveRx β-arrestin2 Ymax (%) (AGTR1; maximal response): 35.8%
BRET β-Arrestin2 High AT1R Expression Ymax (%) (hAT1R [1]): 55.7%
EC50 (hAT1R [1]): 89.4 nM
EC50 (hAT1R [2]): 273 nM

CCCCC(=O)N(Cc1ccc(-c2cc(-c3ccccc3)ccc2-c2nn[nH]n2)nc1)C1(C(=O)O)CCCCC1 [Example 273]
EC50 (AGTR1): 21.4 nM
DiscoveRx β-arrestin2 Ymax (%) (AGTR1; maximal response): 39.3%
BRET β-Arrestin2 High AT1R Expression Ymax (%) (hAT1R [1]): 88.1%
EC50 (hAT1R [1]): 23.2 nM
EC50 (hAT1R [2]): 155 nM

CCCCC(=O)N(Cc1ccc(-c2cc(-c3cnn(C)c3)ccc2-c2nn[nH]n2)cc1)[C@H](C(=O)O)C(C)C [Example 442]
DiscoveRx β-arrestin2 Ymax (%) (AGTR1): 10.9%
EC50 (AGTR1): 105 nM
BRET β-Arrestin2 High AT1R Expression Ymax (%) (hAT1R [1]): 17.2%
EC50 (hAT1R [1]): 303 nM
EC50 (hAT1R [2]): > 100000 nM

CCCCc1nc(Cl)c(C(=O)O)n1Cc1ccc(-c2cc(-c3ccc(C(=O)N(C)C)cc3)ccc2-c2noc(=O)[nH]2)cc1 [Example 409]
EC50 (AGTR1): 59.3 nM
DiscoveRx β-arrestin2 Ymax (%) (AGTR1; maximal response): 50.6%
BRET β-Arrestin2 High AT1R Expression Ymax (%) (hAT1R [1]): 88.7%
EC50 (hAT1R [1]): 73.2 nM
EC50 (hAT1R [2]): 136 nM

CCCCC1=NC2(CCCC2)C(=O)N1Cc1ccc(-c2cc(-c3ccccc3)ccc2-c2noc(=O)[nH]2)cn1 [Example 453, 3-(3-(6-((2-Butyl-4-oxo-1,3-diazaspiro[4.4]non-1-en-3-yl)methyl)pyridin-3-yl)-[1,1′-biphenyl]-4-yl)-1,2,4-oxadiazol-5(4H)-one]
DiscoveRx β-arrestin2 Ymax (%) (AGTR1): 59.5%
EC50 (AGTR1): 31.4 nM
BRET β-Arrestin2 High AT1R Expression Ymax (%) (hAT1R [1]): 95.9%
EC50 (hAT1R [1]): 13 nM
EC50 (hAT1R [2]): 24 nM

CCCCC(=O)N(Cc1ccc(-c2cc(-c3ccc4ncccc4c3)ccc2-c2nn[nH]n2)cc1)[C@H](C(=O)O)C(C)C [Example 441]
DiscoveRx β-arrestin2 Ymax (%) (AGTR1): 39.3%
EC50 (AGTR1): 101 nM
BRET β-Arrestin2 High AT1R Expression Ymax (%) (hAT1R [1]): 64.3%
EC50 (hAT1R [1]): 57 nM
EC50 (hAT1R [2]): > 100000 nM

CC(C)CCC(=O)N(Cc1ccc(-c2cc(-c3ccccc3)ccc2-c2nn[nH]n2)nc1)[C@H](C(=O)O)C(C)C [Example 433]
DiscoveRx β-arrestin2 Ymax (%) (AGTR1): 49.6%
EC50 (AGTR1): 59.1 nM
BRET β-Arrestin2 High AT1R Expression Ymax (%) (hAT1R [1]): 92.4%
EC50 (hAT1R [1]): 115 nM
EC50 (hAT1R [2]): 581 nM

CCCCc1ncc(C(=O)NCCO)n1Cc1ccc(-c2cc(-c3ccccc3)ccc2-c2nn[nH]n2)cc1 [Example 348]
EC50 (AGTR1): 7.3 nM
DiscoveRx β-arrestin2 Ymax (%) (AGTR1; maximal response): 50.9%
BRET β-Arrestin2 High AT1R Expression Ymax (%) (hAT1R [1]): 85.4%
EC50 (hAT1R [1]): 34.3 nM
EC50 (hAT1R [2]): 89.2 nM

CCCCc1nc(Cl)c(C(=O)O)n1Cc1ccc(-c2cc(-c3cnn(C(F)F)c3)ccc2-c2nn[nH]n2)cc1 [Example 387]
EC50 (AGTR1): 16.6 nM
DiscoveRx β-arrestin2 Ymax (%) (AGTR1; maximal response): 32.8%
BRET β-Arrestin2 High AT1R Expression Ymax (%) (hAT1R [1]): 81.9%
EC50 (hAT1R [1]): 18.2 nM
EC50 (hAT1R [2]): 3420 nM

CCCCc1ncc(C(=O)Nc2nc(C)cs2)n1Cc1ccc(-c2cc(-c3ccccc3)ccc2-c2nn[nH]n2)cc1 [Example 349]
EC50 (AGTR1): 69.2 nM
DiscoveRx β-arrestin2 Ymax (%) (AGTR1; maximal response): 24.8%
BRET β-Arrestin2 High AT1R Expression Ymax (%) (hAT1R [1]): 67.6%
EC50 (hAT1R [1]): 117 nM
EC50 (hAT1R [2]): 174 nM

CCCCC(=O)N(Cc1ccc(-c2cc(-c3ccccc3)ccc2-c2nn[nH]n2)cc1)C1(C(=O)O)CCCC1 [Example 271]
EC50 (AGTR1): 384 nM
DiscoveRx β-arrestin2 Ymax (%) (AGTR1; maximal response): 45.5%
BRET β-Arrestin2 High AT1R Expression Ymax (%) (hAT1R [1]): 80.3%
EC50 (hAT1R [1]): 561 nM
EC50 (hAT1R [2]): 590 nM
